From patent US10864196B2, “Modulators of the integrated stress pathway” (Calico Life Sciences LLC, priority 2016, dated 2020)
pEC50: −log10 of the molar value.

These compounds were tested on HEK293T cells carrying the ATF4 luciferase reporter (assay: ATF4-Luc assay (in vitro model of VWMD)). Details: Homo sapiens, HEK-293T, 1 μg/mL tunicamycin, 7 hours, One Glo luminescence.
Format: cell-based
Protocol: In order to test exemplary compounds of the invention in a cellular context, a stable VWMD cell line was first constructed. The ATF4 reporter was prepared by fusing the human full-length ATF4 5′-UTR (NCBI Accession No. BC022088.2) in front of the firefly luciferase (FLuc) coding sequence lacking the initiator methionine as described in Sidrauski et al (eLife 2013). The construct was used to produce recombinant retroviruses using standard methods and the resulting viral supernatant was used to transduce HEK293T cells, which were then subsequently selected with puromycin to generate a stable cell line.
HEK293T cells carrying the ATF4 luciferase reporter were plated on polylysine coated 384-well plates (Greiner Bio-one) at 30,000 cells per well. Cells were treated the next day with 1 μg/mL tunicamycin and 200 nM of a compound of Formula (I) for 7 hours. Luminescence was measured using One Glo (Promega) as specified by the manufacturer. Cells were maintained in DMEM with L-glutamine supplemented with 10% heat-inactivated FBS (Gibco) and Antibiotic-Antimycotic solution (Gibco).
Table 2 below summarizes the EC50 data obtained using the ATF4-Luc assay for exemplary compounds of the invention.

SMILES	pEC50
Cc1cccc(Oc2nnc(C34CC(NC(=O)COc5ccc(Cl)c(F)c5)(C3)C4)o2)c1 [Compound 135, 2-(4-chloro-3-fluorophenoxy)-N-{3-[5-(3-methylphenoxy)-1,3,4-oxadiazol-2-yl]bicyclo[1.1.1]pentan-1-yl}acetamide]	6.60 to 7.30
CC(C)Oc1ccc(OCc2nnc(C34CC(NC(=O)COc5ccc(Cl)c(F)c5)(C3)C4)o2)cn1 [Compound 147, 2-(4-chloro-3-fluorophenoxy)-N-(3-{5-[({6-[(propan-2-yl)oxy]pyridin-3-yl}oxy)methyl]-1,3,4-oxadiazol-2-yl}bicyclo[1.1.1]pentan-1-yl)acetamide]	5.70 to 6.00
O=C(COc1ccc(Cl)c(F)c1)NC12CC(c3nc(COc4cncc(C(F)(F)F)c4)no3)(C1)C2 [Compound 159, 2-(4-chloro-3-fluorophenoxy)-N-{3-[3-({[5-(trifluoromethyl)pyridin-3-yl]oxy}methyl)-1,2,4-oxadiazol-5-yl]bicyclo[1.1.1]pentan-1-yl}acetamide]	6.60 to 7.30
O=C(COc1ccc(Cl)c(F)c1)NC12CC(c3nnc(Oc4ccccc4Cl)o3)(C1)C2 [Compound 127, 2-(4-chloro-3-fluorophenoxy)-N-{3-[5-(2-chlorophenoxy)-1,3,4-oxadiazol-2-yl]bicyclo[1.1.1]pentan-1-yl}acetamide]	6.00 to 6.60
CC(C)c1ccc(OCc2nnc(C34CC(NC(=O)COc5ccc(Cl)c(F)c5)(C3)C4)o2)cn1 [Compound 154, 2-(4-chloro-3-fluorophenoxy)-N-{3-[5-({[6-(propan-2-yl)pyridin-3-yl]oxy}methyl)-1,3,4-oxadiazol-2-yl]bicyclo[1.1.1]pentan-1-yl}acetamide]	< 5.70
N#Cc1cncc(OCc2nnc(C34CC(NC(=O)COc5ccc(Cl)c(F)c5)(C3)C4)o2)c1 [Compound 144, 2-(4-chloro-3-fluorophenoxy)-N-[3-(5-{[(5-cyanopyridin-3-yl)oxy]methyl}-1,3,4-oxadiazol-2-yl)bicyclo[1.1.1]pentan-1-yl]acetamide]	< 5.70
COc1ncc(OCc2nnc(C34CC(NC(=O)COc5ccc(Cl)c(F)c5)(C3)C4)o2)cc1C [Compound 155, 2-(4-chloro-3-fluorophenoxy)-N-[3-(5-{[(6-methoxy-5-methylpyridin-3-yl)oxy]methyl}-1,3,4-oxadiazol-2-yl)bicyclo[1.1.1]pentan-1-yl]acetamide]	6.00 to 6.60
O=C(COc1ccc(Cl)c(F)c1)NC12CC(c3nc(COc4ccnc(C(F)(F)F)c4)no3)(C1)C2 [Compound 160, 2-(4-chloro-3-fluorophenoxy)-N-{3-[3-({[2-(trifluoromethyl)pyridin-4-yl]oxy}methyl)-1,2,4-oxadiazol-5-yl]bicyclo[1.1.1]pentan-1-yl}acetamide]	6.60 to 7.30
O=C(COc1cccc(Cl)c1)NC12CC(c3nc(COc4ccc(Cl)cc4)no3)(C1)C2 [Compound 106, 2-(3-chlorophenoxy)-N-(3-{3-[(4-chlorophenoxy)methyl]-1,2,4-oxadiazol-5-yl}bicyclo[1.1.1]pentan-1-yl)acetamide]	6.00 to 6.60
O=C(COc1ccc(Cl)c(F)c1)NC12CC(c3nnc(Oc4ccc(C(F)(F)F)cc4)o3)(C1)C2 [Compound 131, 2-(4-chloro-3-fluorophenoxy)-N-(3-{5-[4-(trifluoromethyl)phenoxy]-1,3,4-oxadiazol-2-yl}bicyclo[1.1.1]pentan-1-yl)acetamide]	> 7.30
Cc1ccc(Oc2nnc(C34CC(NC(=O)COc5ccc(Cl)c(F)c5)(C3)C4)o2)cc1 [Compound 123, 2-(4-chloro-3-fluorophenoxy)-N-{3-[5-(4-methylphenoxy)-1,3,4-oxadiazol-2-yl]bicyclo[1.1.1]pentan-1-yl}acetamide]	6.60 to 7.30
Cc1ccc(OCC(=O)NC23CC(c4nc(COc5ccc(Cl)cc5)no4)(C2)C3)cc1 [Compound 103, N-(3-{3-[(4-chlorophenoxy)methyl]-1,2,4-oxadiazol-5-yl}bicyclo[1.1.1]pentan-1-yl)-2-(4-methylphenoxy)acetamide]	6.60 to 7.30
COc1cccc(Oc2nnc(C34CC(NC(=O)COc5ccc(Cl)c(F)c5)(C3)C4)o2)c1 [Compound 136, 2-(4-chloro-3-fluorophenoxy)-N-{3-[5-(3-methoxyphenoxy)-1,3,4-oxadiazol-2-yl]bicyclo[1.1.1]pentan-1-yl}acetamide]	6.60 to 7.30
O=C(COc1ccc(Cl)c(F)c1)NC12CCC(c3nc(COc4ccc(C(F)(F)F)nc4)no3)(CC1)C(O)C2 (centres unmarked) [Compound 166, 2-(4-chloro-3-fluorophenoxy)-N-{3-hydroxy-4-[3-({[6-(trifluoromethyl)pyridin-3-yl]oxy}methyl)-1,2,4-oxadiazol-5-yl]bicyclo[2.2.2]octan-1-yl}acetamide]	6.00 to 6.60
